Data: US20210023223A1, “HYDROCARBON / LIPID - CAROTENOID COMPLEXES” (IP SCIENCE LIMITED, priority 2018, published 2021)
Where two headings read alike, the source gives them in different places.

Assays:
Melting time at 37° C. = format: physicochemical
Procedure: (§1) Approximately 20 mg of butter, or pork fat, or beef fat, or cocoa butter, or chocolate, with or without certain concentrations of carotenoids, were placed on the surface of the laboratory slides and incubated at 37° C. in a laboratory incubator (TLK39).

Melting time = format: physicochemical; conditions: lycopene 0.25 to 0.5 mg per 1 gram
Procedure: as §1
For example, in experiments with the chocolate spread, when the lycopene was 0.25 to 0.5 mg per 1 gram of this product its melting time reduced by 30-35%, FIG. 18.

[1] = system: individuals with a moderate hyperlipidemia; assay: Clinical Trial DHA-Lycopene, 4 weeks; format: in vivo, human; conditions: medians, DHA 250 mg and/or lycopene 7 mg once a day
Procedure: To validate this, a clinical trial was undertaken. 32 individuals aged 40-65 years old with a moderate hyperlipidemia (serum triglycerides, TG, >150 mg/dl and LDL from 130 to 160 mg/dl). They were randomised and split in four groups of 8: • The first was supplemented with a 250 mg of conventional formulation of DHA without lycopene (CF-DHA), • the second with 7 mg of lycopene, • the third with 250 mg of DHA and 7 mg of lycopene co-ingested at the same time but as two separate products, and • the fourth group received 7 mg lycopene formulated with 250 mg of DHA (LF-DHA). All products were taken once a day with the main meal. The duration of the trial was for 4 weeks.

[2] = Lycopene in serum and cerumen after 20 mg lycopene for 1 month; format: in vivo, human; conditions: n = 18; for concentration at 1 month: both sexes, human, oral, after 20 mg lycopene daily for one month
Procedure: (§2) Study Design. The total number of volunteers recruited to take part in the study was 18 (9 male and 9 female subjects) Caucasians 40-67 years old.
(§3) Products Formulated with Lycopene was developed and made by Lycotec Ltd. (Cambridge, United Kingdom). The daily dose was 1 capsule of 20 mg of lycopene, and it was taken with the main meal of the day. The period of administration was 1 month.
Blood was collected by phlebotomy in the morning, in the hospital, from the arm veins of patients following night fast. The serum was separated from the rest of the clotted mass by centrifugation; aliquots were then stored in code-labelled tubes for blinded analysis and stored at −80° C. until use.
For sample collection from the surface of the facial skin and samples of the cerumen all study participants were requested to avoid facial and ear hygienic manipulations for 24 hours before sampling, which was carried out in the morning in parallel with blood sample collection. Skin surface sample collection and preparation was performed as previously described. Briefly, samples were collected using polyester swabs from the surface of the facial skin (the sides of the nose). During the procedure two samples were taken (one swab per side). Each collected sample was placed on the surface of a microscope slide. A second microscope slide was pressed against the surface of the first one. This procedure provided a pair of identical smears. All slides with collected samples were coded to provide sample anonymity for blinded analysis and stored at −20° C. until further analysis.
The lycopene concentration in all serum samples was measured in duplicate by high-performance liquid chromatography with modifications. Briefly, 400 μl of serum was mixed with 400 μl of ethanol and was extracted twice with 2 ml hexane. The combined hexane layers were evaporated to dryness in a vacuum (Scan Speed 32 centrifuge) and the residue reconstituted to a volume of 100 μl in sample solution (absolute ethanol—methylene chloride, 5:1, v/v). The specimens were centrifuged again (15 minutes at 10,000 g) and clear supernatant was transferred to HPLC vials. Five microliters of the extract was injected into an Acquity HSS T3 75×2.1 mm 1.8 μm column (Waters, USA) preceded by a Acquity HSS T3 1.8 μm VanGuard precolumn (Waters, USA) and eluted isocratically at 45° C. with the mobile phase (acetonitrile—0.08% phosphoric acid solution—tert-Butyl methyl ether, 70:5:25, v/v/v) at a flow rate of 0.5 ml/min. The lycopene peak was detected by a Photodiode Array Detector (Waters, USA) at 474 nm. The peak area was measured using Empower 3 software (Waters, Mass.). The lycopene concentration in serum samples was calculated by reference to an analytical standard (lycopene from tomato, L9879, Sigma, USA).

[3] = system: moderately obese volunteers; assay: Inflammatory Oxidative Damage (IOD) of serum; format: in vivo, human
Procedure: as §2, §3
Serum samples were incubated overnight in 0.05 M PBS acetate buffer (pH 5.6) to imitate the type of oxidative damage, which occurs during the release of lysosomes following neutrophil degranulation. The following morning the reaction was stopped using trichloroacetic acid. The concentration of the end products such as malonic dialdehyde (MDA), and other possible thiobarbituric acid reactive substances (TBARS), was then measured by colorimetry using reagents and kits from Cayman Chemical (MC, USA).

- Reduction of melting time of cocoa butter (Melting time at 37° C.; 0.3 mg per 1 g): more than 8 fold
- Reduction of melting time of white chocolate (Melting time at 37° C.; 0.3 mg per 1 g of the chocolate): under 3 fold
- Melting time of white chocolate (Melting time at 37° C.; 0.3 mg per 1 g of the chocolate, control 11 minutes): 4 min
- Melting time of cocoa butter (Melting time at 37° C.; 0.3 mg per 1 g, control 16.5 minutes): 2 min
- Reduction of melting time of chocolate spread (Melting time): 30-35%
- Lycopene in cerumen ([2]; before): 0.29 ± 0.05 ng/mg
- Lycopene in serum ([2]; before): 137 ± 14.5 ng/mL
- concentration at 1 month ([2]; cerumen, read-out: Lycopene in cerumen): 900 ± 120 ng/g
- concentration at 1 month ([2]; serum, read-out: Lycopene in serum): 310 ± 29.9 ng/mL
Compound: CC(C)=CCC/C(C)=C/C=C/C(C)=C/C=C/C(C)=C/C=C/C=C(C)/C=C/C=C(C)/C=C/C=C(\C)CCC=C(C)C [Lycopene]
- LDL ([1]; 0 w): 156.0 mg/dL
- Triglycerides ([1]; 0 w): 203.5 mg/dL
- LDL ([1]; 4 w): 155.5 mg/dL
- Triglycerides ([1]; 4 w): 190.0 mg/dL
- IOD ([3]; after 20 mg lycopene daily for one month): 60 ± 5.8 μM MDA
- IOD ([3]; before, n = 18): 107 ± 11.6 μM MDA
